Assays:
F1F0-ATPase = molecular target: T1, F1F0-ATPase (Bos taurus, UniProt P13621); experiment: Inhibition of ATP synthesis by the F1F0-ATPase; type: biochemical
T1 construct: from tissue
Experimental: (§1) Compounds in Example 4 above were tested for activity against F1F0-ATPase by measuring ATP synthesis. In addition, the compounds were assessed for cytotoxicity in Ramos cells. Inhibition of ATP synthesis by the F1F0-ATPase and cytotoxicity in Ramos cells were measured according to the procedures described in K. M. Johnson et al. Chemistry & Biology 2005, 12, 485-496.

Ramos cells = experiment: Cytotoxicity in Ramos cells; type: cell-based; details: Homo sapiens, read-out: Ramos cell EC50
Experimental: as §1

O=C(/N=C(/Nc1cc(F)cc(Cl)c1)N[C@H]1CC[C@H](NC(=O)N2CCOCC2)CC1)c1ccc(F)c(F)c1 [Compound 136]
IC50 (F1F0-ATPase): < 10 µM | EC50 (Ramos cells): < 10 µM

O=C(/N=C(/Nc1cc(F)cc(Cl)c1)N[C@H]1CC[C@H](O)CC1)c1ccc(C(F)(F)F)cc1 [Compound 7]
IC50 (F1F0-ATPase): < 10 µM | EC50 (Ramos cells): < 10 µM

O=C(/N=C(\Nc1cccc(C(F)(F)F)c1)N[C@H]1CC[C@H](O)CC1)c1ccc(C(F)(F)F)cc1 [Compound 2]
IC50 (F1F0-ATPase): < 10 µM | EC50 (Ramos cells): < 10 µM

O=C(/N=C(/Nc1cc(F)cc(Cl)c1)N[C@H]1CC[C@H](NC(=O)C2CC2)CC1)c1ccc(F)c(F)c1 [Compound 101]
IC50 (F1F0-ATPase): < 10 µM | EC50 (Ramos cells): < 10 µM

CN(C)C(=O)N[C@H]1CC[C@H](N/C(=N\C(=O)c2ccc(F)c(F)c2)Nc2cc(F)cc(Cl)c2)CC1 [Compound 135]
IC50 (F1F0-ATPase): < 10 µM | EC50 (Ramos cells): < 10 µM

O=C(/N=C(/Nc1cc(F)cc(Cl)c1)N[C@H]1CC[C@H](NC(=O)c2ccccc2)CC1)c1ccc(F)c(F)c1 [Compound 140]
IC50 (F1F0-ATPase): < 10 µM | EC50 (Ramos cells): < 10 µM

CC(C)(C)N/C(=N/C(=O)c1ccc(F)c(F)c1)N[C@H]1CC[C@H](O)CC1 [Compound 108]
IC50 (F1F0-ATPase): > 10 µM | EC50 (Ramos cells): > 10 µM

Cc1cc(C(=O)N[C@H]2CC[C@H](N/C(=N\C(=O)c3ccc(F)c(F)c3)Nc3cccc(Cl)c3)CC2)ccn1 [Compound 132]
IC50 (F1F0-ATPase): < 10 µM | EC50 (Ramos cells): < 10 µM

CC1(N/C(=N/C(=O)c2ccc(C(F)(F)F)cc2)N[C@H]2CC[C@H](Nc3ncccn3)CC2)CCC1 [Compound 113]
IC50 (F1F0-ATPase): < 10 µM | EC50 (Ramos cells): < 10 µM

CCOC(=O)N[C@H]1CC[C@H](N/C(=N\C(=O)c2ccc(F)c(F)c2)Nc2cc(C(C)(C)C)on2)CC1 [Compound 80]
IC50 (F1F0-ATPase): > 10 µM | EC50 (Ramos cells): > 10 µM

CS(=O)(=O)N[C@H]1CC[C@H](N/C(=N/C(=O)c2ccc(F)c(F)c2)Nc2cc(F)cc(Cl)c2)CC1 [Compound 96]
IC50 (F1F0-ATPase): < 10 µM | EC50 (Ramos cells): < 10 µM

CCOC(=O)N[C@H]1CCC[C@@H](N/C(=N\C(=O)c2ccc(F)c(F)c2)Nc2cc(F)cc(Cl)c2)C1 [Compound 125]
IC50 (F1F0-ATPase): < 10 µM | EC50 (Ramos cells): < 10 µM

CCOC(=O)NC1CCC(N/C(=N\C(=O)c2cccc(OC)c2)Nc2cc(F)cc(Cl)c2)CC1 (centres unmarked) [Compound 155]
IC50 (F1F0-ATPase): < 10 µM | EC50 (Ramos cells): < 10 µM

O=C(/N=C(/NC1CCCC1)N[C@H]1CC[C@H](Nc2ncccn2)CC1)c1ccc(Cl)c(F)c1 [Compound 143]
IC50 (F1F0-ATPase): < 10 µM | EC50 (Ramos cells): < 10 µM

CCOC(=O)NC1CCC(N/C(=N\C(=O)c2ccc(Cl)cc2)Nc2cc(F)cc(Cl)c2)CC1 (centres unmarked) [Compound 165]
IC50 (F1F0-ATPase): < 10 µM | EC50 (Ramos cells): < 10 µM

CCOC(=O)N[C@H]1CC[C@H](N/C(=N/C(=O)c2ccc(F)c(F)c2)Nc2cccc(C(F)(F)F)c2)CC1 [Compound 14]
IC50 (F1F0-ATPase): < 10 µM | EC50 (Ramos cells): < 10 µM

CC(C)(C)CN/C(=N/C(=O)c1ccc(Cl)c(F)c1)N[C@H]1CC[C@H](Nc2ncccn2)CC1 [Compound 144]
IC50 (F1F0-ATPase): < 10 µM | EC50 (Ramos cells): < 10 µM

CC(C)(C)CN/C(=N/C(=O)c1ccc(F)c(F)c1)N[C@H]1CC[C@H](NC(=O)c2cccs2)CC1 [Compound 141]
IC50 (F1F0-ATPase): < 10 µM | EC50 (Ramos cells): < 10 µM

O=C1CCC(N/C(=N\C(=O)c2ccc(C(F)(F)F)cc2)Nc2cc(F)cc(Cl)c2)CC1 [Compound 172]
IC50 (F1F0-ATPase): < 10 µM | EC50 (Ramos cells): < 10 µM

CC(C)(C)OC(=O)NC1CCC(NC(=NC(=O)c2ccc(Cl)cc2)NC2CCC(NC(=O)OC(C)(C)C)CC2)CC1 (centres unmarked) [Compound 162]
IC50 (F1F0-ATPase): > 10 µM | EC50 (Ramos cells): > 10 µM

O=C(/N=C(/Nc1cc(F)cc(Cl)c1)NC1CCC(NC(=O)c2nccs2)CC1)c1ccc(F)c(F)c1 (centres unmarked) [Compound 168]
IC50 (F1F0-ATPase): < 10 µM | EC50 (Ramos cells): < 10 µM

COC(=O)NC1CCC(N/C(=N\C(=O)c2cccc(OC)c2)Nc2cc(F)cc(Cl)c2)CC1 (centres unmarked) [Compound 156]
IC50 (F1F0-ATPase): < 10 µM | EC50 (Ramos cells): < 10 µM

O=C(/N=C(/Nc1cccc(Cl)c1)N[C@H]1CC[C@H](NC(=O)c2ccccc2)CC1)c1ccc(F)c(F)c1 [Compound 134]
IC50 (F1F0-ATPase): < 10 µM | EC50 (Ramos cells): < 10 µM

O=C(/N=C(/Nc1cccc(C(F)(F)F)c1)N[C@H]1CC[C@H](O)CC1)c1cccc(Cl)c1 [Compound 24]
IC50 (F1F0-ATPase): < 10 µM | EC50 (Ramos cells): < 10 µM

CC(C)(C)c1ccccc1N/C(=N\C(=O)c1ccc(C(F)(F)F)cc1)N[C@H]1CC[C@H](O)CC1 [Compound 1]
IC50 (F1F0-ATPase): < 10 µM | EC50 (Ramos cells): < 10 µM

CCOC(=O)N[C@H]1CC[C@H](N/C(=N\C(=O)c2ccc(F)c(F)c2)Nc2ccccc2C2CC2)CC1 [Compound 66]
IC50 (F1F0-ATPase): < 10 µM | EC50 (Ramos cells): < 10 µM

O=C(/N=C(/NCc1cccc(F)c1)N[C@H]1CC[C@H](O)CC1)c1ccc(F)c(F)c1 [Compound 36]
IC50 (F1F0-ATPase): > 10 µM | EC50 (Ramos cells): > 10 µM

O=C(/N=C(/Nc1cccc(C(F)(F)F)c1)N[C@H]1CC[C@H](Nc2ncccn2)CC1)c1ccc(F)c(F)c1 [Compound 94]
IC50 (F1F0-ATPase): < 10 µM | EC50 (Ramos cells): < 10 µM

CCOC(=O)N[C@H]1CC[C@H](N/C(=N\C(=O)c2ccc(F)c(F)c2)NCc2ccc(F)c(F)c2)CC1 [Compound 56]
IC50 (F1F0-ATPase): < 10 µM | EC50 (Ramos cells): < 10 µM

CC(C)(C)CN/C(=N/C(=O)c1ccc(F)c(F)c1)N[C@H]1CC[C@H](Nc2ncccn2)CC1 [Compound 138]
IC50 (F1F0-ATPase): < 10 µM | EC50 (Ramos cells): < 10 µM

O=C(/N=C(/Nc1cc(F)cc(Cl)c1)NC1CCCC(Nc2ncccn2)C1)c1ccc(F)c(F)c1 (centres unmarked) [Compound 124]
IC50 (F1F0-ATPase): < 10 µM | EC50 (Ramos cells): < 10 µM

CC(C)(C)C(=O)N[C@H]1CC[C@H](N/C(=N\C(=O)c2ccc(F)c(F)c2)Nc2cc(F)cc(Cl)c2)CC1 [Compound 102]
IC50 (F1F0-ATPase): < 10 µM | EC50 (Ramos cells): < 10 µM

O=C(/N=C(/NCc1ccc(F)cc1Cl)N[C@H]1CC[C@H](O)CC1)c1ccc(F)c(F)c1 [Compound 43]
IC50 (F1F0-ATPase): > 10 µM | EC50 (Ramos cells): > 10 µM

CCOC(=O)N[C@H]1CC[C@H](N/C(=N\C(=O)c2ccc(F)c(F)c2)NCc2cccc(Cl)c2)CC1 [Compound 48]
IC50 (F1F0-ATPase): < 10 µM | EC50 (Ramos cells): < 10 µM

O=C(/N=C(/NCc1ccc(Cl)cc1F)N[C@H]1CC[C@H](Nc2ncccn2)CC1)c1ccc(F)c(F)c1 [Compound 72]
IC50 (F1F0-ATPase): < 10 µM | EC50 (Ramos cells): < 10 µM

O=C(/N=C(/Nc1cccc(C(F)(F)F)c1)N[C@H]1CC[C@H](Nc2ncccn2)CC1)c1ccc(Cl)cc1 [Compound 119]
IC50 (F1F0-ATPase): < 10 µM | EC50 (Ramos cells): < 10 µM

O=C(/N=C(/Nc1cccc(Cl)c1)N[C@H]1CC[C@H](O)CC1)c1ccc(Cl)cc1 [Compound 27]
IC50 (F1F0-ATPase): > 10 µM | EC50 (Ramos cells): < 10 µM

CS(=O)(=O)N[C@H]1CC[C@H](N/C(=N/C(=O)c2ccc(F)c(F)c2)Nc2cccc(Cl)c2)CC1 [Compound 97]
IC50 (F1F0-ATPase): > 10 µM | EC50 (Ramos cells): < 10 µM

O=C(/N=C(/NCc1ccccc1C(F)(F)F)N[C@H]1CC[C@H](Nc2ncccn2)CC1)c1ccc(F)c(F)c1 [Compound 92]
IC50 (F1F0-ATPase): < 10 µM | EC50 (Ramos cells): < 10 µM

N[C@H]1CC[C@H](N/C(=N/C(=O)c2ccc(F)c(F)c2)Nc2cc(F)cc(Cl)c2)CC1 [Compound 12]
IC50 (F1F0-ATPase): > 10 µM | EC50 (Ramos cells): < 10 µM

CC1CCC(N/C(=N/C(=O)c2ccc(F)c(F)c2)N[C@H]2CC[C@H](Nc3ncccn3)CC2)CC1 (some centres unmarked) [Compound 86]
IC50 (F1F0-ATPase): < 10 µM | EC50 (Ramos cells): < 10 µM

O=C(/N=C(/NCc1ccccc1C(F)(F)F)N[C@H]1CC[C@H](O)CC1)c1ccc(C(F)(F)F)cc1 [Compound 17]
IC50 (F1F0-ATPase): < 10 µM | EC50 (Ramos cells): < 10 µM

CCOC(=O)N[C@H]1CC[C@@H](N/C(=N\C(=O)c2ccc(F)c(F)c2)Nc2cc(F)cc(Cl)c2)CC1 [Compound 85]
IC50 (F1F0-ATPase): < 10 µM | EC50 (Ramos cells): < 10 µM
